The source of these data is ChEMBL document CHEMBL1145273, “New cytotoxic bisindole alkaloids with protein tyrosine kinase inhibitory activity from a myxomycete Lycogala epidendrum” (Bioorg Med Chem Lett, 2005).

The target of experiment [1] is Proto-oncogene tyrosine-protein kinase Src (Homo sapiens) (UniProt P12931). Description: Inhibition of protein tyrosine kinase mediated [gamma-32P]-ATP incorporation at 10 ug/mL in src-transformed NIH3T3.
In experiment [2] the target is T1, Eukaryotic elongation factor 2 kinase (Homo sapiens) (UniProt O00418).
T1 sequence (whole entry): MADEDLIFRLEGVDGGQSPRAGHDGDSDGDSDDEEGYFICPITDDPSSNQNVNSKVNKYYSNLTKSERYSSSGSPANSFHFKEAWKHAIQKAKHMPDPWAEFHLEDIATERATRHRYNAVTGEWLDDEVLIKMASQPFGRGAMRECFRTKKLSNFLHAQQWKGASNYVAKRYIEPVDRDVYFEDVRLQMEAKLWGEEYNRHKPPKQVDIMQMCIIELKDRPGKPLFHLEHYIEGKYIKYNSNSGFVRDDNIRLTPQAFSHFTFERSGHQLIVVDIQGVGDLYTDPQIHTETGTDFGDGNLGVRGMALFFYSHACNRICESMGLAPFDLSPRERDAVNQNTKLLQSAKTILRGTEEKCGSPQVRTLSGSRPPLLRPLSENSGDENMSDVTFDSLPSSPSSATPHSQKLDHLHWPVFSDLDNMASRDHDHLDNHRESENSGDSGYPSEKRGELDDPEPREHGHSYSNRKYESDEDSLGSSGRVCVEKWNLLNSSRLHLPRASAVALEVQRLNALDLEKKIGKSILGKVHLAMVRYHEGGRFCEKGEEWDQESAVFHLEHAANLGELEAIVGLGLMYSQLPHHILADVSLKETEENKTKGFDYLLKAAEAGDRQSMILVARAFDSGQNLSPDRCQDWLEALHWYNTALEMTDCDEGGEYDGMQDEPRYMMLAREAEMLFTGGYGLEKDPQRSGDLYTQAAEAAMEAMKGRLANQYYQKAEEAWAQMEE
The experiment is described as follows: Inhibition of eukaryotic elongation factor-2 kinase mediated [gamma-32P]-ATP incorporation at 0.1 ug/mL.

In experiment [3] the target is Vascular endothelial growth factor receptor 1 (Homo sapiens) (UniProt P17948). Description: Inhibition of Vascular endothelial growth factor receptor 1 mediated [gamma-32P]-ATP incorporation at 10 ug/mL.
Experiment [4] shares this target. Description: Inhibition of Vascular endothelial growth factor receptor 1 mediated [gamma-32P]-ATP incorporation at 0.1 ug/mL.
The target is the same in experiment [5]. The experiment is described as follows: Inhibition of Vascular endothelial growth factor receptor 1 mediated [gamma-32P]-ATP incorporation at 1 ug/mL.
Experiment [6] concerns the target T2, cAMP-dependent protein kinase (PKA) (Homo sapiens) (UniProt P22694+P17612+P22612). Description: Inhibition of Protein kinase A mediated [gamma-32P]-ATP incorporation at 1 ug/mL. The format is protein assay.
For experiment [7], the target named is T3, Protein kinase C (PKC) (Homo sapiens) (UniProt O94806+P41743+P17252+P05129+Q05655+P05771+Q05513+Q02156+P24723+Q15139+Q04759). The experiment is described as follows: Inhibition of Protein kinase C mediated […]-ATP incorporation at 10 ug/mL. The class given is protein assay.
In experiment [8] the target is T3, Protein kinase C (PKC) (Homo sapiens). Description: Inhibition of Protein kinase C mediated […]-ATP incorporation at 0.1 ug/mL. The format is protein assay.
Experiment [9] has the same target. Description: Inhibition of Protein kinase C mediated […]-ATP incorporation at 1 ug/mL. The class given is protein assay.
Experiment [10] deals with T2, cAMP-dependent protein kinase (PKA) (Homo sapiens). The experiment is described as follows: Inhibition of Protein kinase A mediated [gamma-32P]-ATP incorporation at 0.1 ug/mL. The format is protein assay.
Experiment [11] in a line: Cytotoxicity against KB/VJ300 cells. The class given is functional, cell-based. The note with it: Homo sapiens.
The target in experiment [12] is T1, Eukaryotic elongation factor 2 kinase (Homo sapiens). The experiment is described as follows: Inhibition of eukaryotic elongation factor-2 kinase mediated [gamma-32P]-ATP incorporation at 1 ug/mL.
The target of experiment [13] is Proto-oncogene tyrosine-protein kinase Src (Homo sapiens) (UniProt P12931). The experiment is described as follows: Inhibition of protein tyrosine kinase mediated [gamma-32P]-ATP incorporation at 1 ug/mL in src-transformed NIH3T3.
The target is the same in experiment [14]. Description: Inhibition of protein tyrosine kinase mediated [gamma-32P]-ATP incorporation at 0.1 ug/mL in src-transformed NIH3T3.
In another experiment the test system is HeLa. Description: Cytotoxicity against HeLa cells. The class given is functional, cell-based. Particulars: Homo sapiens.
The test system of a further experiment is Jurkat. The experiment is described as follows: Cytotoxicity against Jurkat cells. The format is functional, cell-based. Particulars: Homo sapiens.
Experiment [15] deals with T2, cAMP-dependent protein kinase (PKA) (Homo sapiens). The experiment is described as follows: Inhibition of Protein kinase A mediated [gamma-32P]-ATP incorporation at 10 ug/mL. The class given is protein assay.
The target in experiment [16] is T1, Eukaryotic elongation factor 2 kinase (Homo sapiens). The experiment is described as follows: Inhibition of eukaryotic elongation factor-2 kinase mediated [gamma-32P]-ATP incorporation at 10 ug/mL; Range is 50-80.
For experiment [17] the target is unchanged. The experiment is described as follows: Inhibition of eukaryotic elongation factor-2 kinase mediated [gamma-32P]-ATP incorporation at 10 ug/mL.
The target in experiment [18] is Proto-oncogene tyrosine-protein kinase Src (Homo sapiens) (UniProt P12931). Description: Inhibition of protein tyrosine kinase mediated [gamma-32P]-ATP incorporation at 10 ug/mL in src-transformed NIH3T3; range = 50-80%.
Experiment [19] has as its target T3, Protein kinase C (PKC) (Homo sapiens). The experiment is described as follows: Inhibition of Protein kinase C mediated […]-ATP incorporation at 10 ug/mL; Range is 50 to 80%. The format is protein assay.

In brackets after ≈: the same amount, converted by molar mass. Where only a bound is given, the exact number is not on record here.

Proto-oncogene tyrosine-protein kinase Src (Homo sapiens), sequence (P12931 2-536 limits assumed): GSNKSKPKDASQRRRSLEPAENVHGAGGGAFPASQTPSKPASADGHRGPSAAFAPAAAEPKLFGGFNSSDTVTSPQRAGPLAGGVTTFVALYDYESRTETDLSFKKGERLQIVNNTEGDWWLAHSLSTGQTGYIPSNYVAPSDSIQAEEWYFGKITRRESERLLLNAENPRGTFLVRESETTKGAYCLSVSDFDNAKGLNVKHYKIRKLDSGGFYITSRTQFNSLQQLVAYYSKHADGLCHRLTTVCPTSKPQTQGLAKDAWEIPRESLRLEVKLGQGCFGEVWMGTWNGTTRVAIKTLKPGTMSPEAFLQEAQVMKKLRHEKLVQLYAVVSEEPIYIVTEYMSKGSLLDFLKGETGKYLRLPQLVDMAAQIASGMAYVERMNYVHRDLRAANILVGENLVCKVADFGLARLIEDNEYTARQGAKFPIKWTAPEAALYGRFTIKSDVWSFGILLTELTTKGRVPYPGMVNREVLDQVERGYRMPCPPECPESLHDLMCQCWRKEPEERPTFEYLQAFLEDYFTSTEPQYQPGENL
Vascular endothelial growth factor receptor 1 (Homo sapiens), sequence (P17948 whole entry): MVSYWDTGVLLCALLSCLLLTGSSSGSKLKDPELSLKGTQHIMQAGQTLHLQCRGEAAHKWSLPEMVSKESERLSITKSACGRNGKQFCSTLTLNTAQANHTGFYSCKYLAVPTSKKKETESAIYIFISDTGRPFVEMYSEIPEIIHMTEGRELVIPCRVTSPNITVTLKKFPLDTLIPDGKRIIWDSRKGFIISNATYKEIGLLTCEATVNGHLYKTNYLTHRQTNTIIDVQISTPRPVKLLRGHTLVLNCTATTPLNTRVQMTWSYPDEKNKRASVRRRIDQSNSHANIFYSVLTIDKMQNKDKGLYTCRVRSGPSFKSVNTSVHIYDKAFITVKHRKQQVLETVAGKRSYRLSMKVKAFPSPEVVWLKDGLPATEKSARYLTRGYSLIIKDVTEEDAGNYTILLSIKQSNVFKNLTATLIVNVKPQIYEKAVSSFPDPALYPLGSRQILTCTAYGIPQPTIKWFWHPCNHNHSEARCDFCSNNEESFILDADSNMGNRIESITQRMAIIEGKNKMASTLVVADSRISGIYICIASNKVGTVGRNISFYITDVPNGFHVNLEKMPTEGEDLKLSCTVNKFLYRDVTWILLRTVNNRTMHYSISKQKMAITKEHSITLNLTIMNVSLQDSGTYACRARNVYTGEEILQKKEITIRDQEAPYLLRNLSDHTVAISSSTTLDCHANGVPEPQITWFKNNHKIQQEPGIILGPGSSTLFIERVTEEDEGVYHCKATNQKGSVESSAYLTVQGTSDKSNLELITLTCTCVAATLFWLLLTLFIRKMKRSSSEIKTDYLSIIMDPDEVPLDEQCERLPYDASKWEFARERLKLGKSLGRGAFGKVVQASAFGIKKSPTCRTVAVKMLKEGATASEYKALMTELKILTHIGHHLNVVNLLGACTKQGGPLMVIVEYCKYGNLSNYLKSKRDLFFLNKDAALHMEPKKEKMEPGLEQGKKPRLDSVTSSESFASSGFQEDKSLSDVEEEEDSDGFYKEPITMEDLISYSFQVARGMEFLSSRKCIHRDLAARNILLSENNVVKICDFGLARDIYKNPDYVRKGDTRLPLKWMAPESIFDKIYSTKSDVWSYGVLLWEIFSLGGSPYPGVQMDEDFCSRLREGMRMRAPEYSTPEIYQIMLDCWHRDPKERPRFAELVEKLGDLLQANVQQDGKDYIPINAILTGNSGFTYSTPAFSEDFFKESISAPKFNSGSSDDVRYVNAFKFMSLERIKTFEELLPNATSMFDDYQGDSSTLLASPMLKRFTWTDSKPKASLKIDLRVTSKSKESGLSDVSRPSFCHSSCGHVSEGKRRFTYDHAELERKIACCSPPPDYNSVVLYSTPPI

In the case of `O=C1NCc2c1c1c3ccc(O)cc3[nH]c1c1[nH]c3ccccc3c21`, the inhibition (as a rule, the change of the read-out against control, counted positive when it falls) in [1] is greater than 80%; in experiment [2] it was less than 50%; in experiment [3] it was 80%; in experiment [4] it was less than 50%; in [5] it was less than 50%; in [6], less than 50%. Further, the inhibition in experiment [7] was 80%; in experiment [8] it was less than 50%; in [9], less than 50%; in [10], less than 50%; in experiment [12], less than 50%; in [13], 80%. The inhibition in [14] is less than 50%; in [15], 80%; in experiment [16], 80%. In addition, the IC50 (in general, the concentration at which inhibition is half-maximal) in [11] was 7.6 µg/mL (≈ 23.2 µM); in the experiment with HeLa, 5.4 µg/mL (≈ 16.5 µM); with Jurkat, 1.34 µg/mL (≈ 4.09 µM).

Regarding `O=C1NC(=O)c2c1c1c3ccccc3[nH]c1c1[nH]c3cc(O)c(O)cc3c21`, the inhibition in experiment [2], in experiment [3], in experiment [4], in [5], in [6] and in experiment [8] was less than 50% in each case. In addition, the inhibition in experiment [9], in [10], in experiment [12], in experiment [13], in [17] and in experiment [14] was less than 50% throughout. The inhibition is 80% in experiment [18], 80% in experiment [19] and less than 50% in experiment [15]. Further, the IC50 in experiment [11] is 25 µg/mL (≈ 70 µM); in the experiment with HeLa, 2.1 µg/mL (≈ 5.88 µM); in the experiment with Jurkat it was 0.84 µg/mL (≈ 2.35 µM).

In the case of `COC(=O)c1[nH]c(C(=O)OC)c(-c2c[nH]c3ccc(O)cc23)c1-c1c[nH]c2ccccc12` [LYCOGARUBIN B], the inhibition is less than 50% in [1]; less than 50% in experiment [2]; less than 50% in experiment [3]; less than 50% in experiment [4]; 50% in [5]; less than 50% in experiment [6]. The inhibition in experiment [7], in experiment [8], in experiment [9], in [12], in experiment [13] and in experiment [17] was less than 50% throughout. Besides, the inhibition in [14] and in experiment [15] was less than 50% throughout. For the same compound, the values for the IC50 (in experiment [11]; in the experiment with Jurkat) were greater than 25 µg/mL and 18 µg/mL (≈ 41.9 µM), respectively.

Regarding `COC(=O)c1[nH]c(C(=O)OC)c(-c2c[nH]c3ccccc23)c1-c1c[nH]c2ccccc12` [LYCOGARUBIN C], the inhibition in [1], in [2], in experiment [3], in experiment [5], in [6] and in [7] was less than 50% each time. Moreover, the inhibition in [8], in experiment [9], in [10], in experiment [12], in experiment [13] and in experiment [17] was less than 50% each time. Further, the inhibition in [14] and in experiment [15] was less than 50% throughout. Also, the IC50 in experiment [11] was greater than 25 µg/mL; with Jurkat, 15.3 µg/mL (≈ 37 µM).

Regarding `O=C1NC(=O)C(c2c[nH]c3ccccc23)=C1c1c[nH]c2ccccc12` [RO-316233], the inhibition in experiment [1] is 80%; in [2] it was less than 50%; in experiment [3], less than 50%; in [4], less than 50%; in [5], less than 50%; in experiment [6], less than 50%. Further, the inhibition in experiment [9], in [10], in experiment [12], in experiment [13], in experiment [17] and in experiment [14] was less than 50% in each case. Further, the inhibition in [15] was 80%. Moreover, the IC50 in experiment [11] was greater than 25 µg/mL; with Jurkat, 6.3 µg/mL (≈ 19.2 µM).
